These results are taken from patent publication US20260166003A1, “NOVEL APTAMER, AND COMPOSITION FOR COGNITIVE FUNCTION IMPROVEMENT AND ANTI-AGING COMPRISING APTAMER AS ACTIVE INGREDIENT” (NEXMOS CO., LTD, priority 2021, published 2026).

Series [1] can be described thus: OPDA assay of vitamin C oxidation delay. In kind it is biochemical. Conditions: L-ascorbic acid 0.1%, aptamer 0.001%, hydrogen peroxide, 900 minutes; compared with C332 and other 20 mer aptamers; FIG. 2. On the procedure: In this case, the L-ascorbic acid was mixed at a ratio of 0.1% and the aptamer was mixed at 0.001%. Thereafter, hydrogen peroxide was added to prepare an oxidation condition, and then oxidation of L-ascorbic acid was measured by adding o-phenylenediamine (OPDA), a fluorescent dye. The degree of DHA production may be quantitatively analyzed by measuring the amount of fluorescence from DHA-OPDA generated by the reaction of DHA, an oxide of L-ascorbic acid, with OPDA. Under the above conditions, the amount of fluorescence of DHA-OPDA was measured every 2 minutes for a total of 900 minutes.

Series [2] is described as follows: OPDA assay in gastric acid-like low pH environment. In kind it is physicochemical. Conditions: pH between 1.4 and 1.6 with hydrochloric acid, hydrogen peroxide, 900 minutes; compared to normal condition; FIG. 3. On the procedure:
OPDA assay was used to confirm whether the vitamin C oxidation delay effect of aptamin C320 was maintained in a low pH environment similar to gastric acid in order to confirm that the effect of the substance was not reduced or eliminated by the pH environment in the stomach when ingested orally.
Thereafter, hydrogen peroxide was added to prepare an oxidation condition, and at this time, the pH was adjusted to be between 1.4 and 1.6 using hydrochloric acid, and oxidation of L-ascorbic acid was measured by adding an o-phenylenediamine (OPDA), which is a fluorescent dye. The degree of DHA production can be quantitatively analyzed by measuring the amount of fluorescence from DHA-OPDA generated by the reaction of DHA, an oxide of L-ascorbic acid, with OPDA. Under the above conditions, the fluorescence amount of DHA-OPDA was measured every 2 minutes for a total of 900 minutes.

Take “aptamin C320: 20 mer DNA aptamer, SEQ ID NO: 1, GCCAGTCTCGCGGTGGCGGC, delays oxidation of vitamin C (DNA, backbone and methylation of C not given here)”: in series [1], the “vitamin C oxidation delay effect (DHA-OPDA fluorescence)” value was “delays the oxidation of vitamin C to the highest extent”. Moreover, the “maintenance of vitamin C oxidation delay effect in acid condition” value in series [2] is given as “maintained without significantly decreasing in acid condition”.
